The source of these data is the CheMixHub ionic liquid set.

A short description of the data set: xn = mol fraction of the nth substance listed. Conditions: 100 kPa.

± gives the uncertainty stated by the source.

Turning to `CCCCCCCCCCCCCC[P+](CCCCCC)(CCCCCC)CCCCCC.N#Cc1ccc[n-]1` + CCCCCC[n+]1ccn(C)c1C.O=S(=O)([N-]S(=O)(=O)C(F)(F)F)C(F)(F)F, the viscosity – broadly, the internal friction of a fluid under shear – (278.15 K, x2 = 0.799) stood at 900 ± 120 mPa·s; the viscosity (283.15 K, x2 = 0.601) was found to be 900 ± 120 mPa·s; the viscosity (288.15 K, x2 = 0) is on record as 800 ± 110 mPa·s; the viscosity (288.15 K, x2 = 0.098) is on record as 870 ± 110 mPa·s; the viscosity (288.15 K, x2 = 0.301) is listed as 760 ± 100 mPa·s.
